We go through three molecules from US20130202719A1, “STABILIZED CHLORITE SOLUTIONS IN COMBINATION WITH FLUROPYRIMIDINES FOR CANCER” (NUVO RESEARCH AG, priority 2005, published 2013).

For series [1] the following is noted: phase II study, advanced or metastatic pancreatic cancer; cited from earlier work.
A further series concerns the target T1, DPD (Homo sapiens, UniProt Q12882).
T1 construct: More than 80% of an administered dose of 5-FU is eliminated by catabolism through DPD
T1 sequence (Q12882 4-1025): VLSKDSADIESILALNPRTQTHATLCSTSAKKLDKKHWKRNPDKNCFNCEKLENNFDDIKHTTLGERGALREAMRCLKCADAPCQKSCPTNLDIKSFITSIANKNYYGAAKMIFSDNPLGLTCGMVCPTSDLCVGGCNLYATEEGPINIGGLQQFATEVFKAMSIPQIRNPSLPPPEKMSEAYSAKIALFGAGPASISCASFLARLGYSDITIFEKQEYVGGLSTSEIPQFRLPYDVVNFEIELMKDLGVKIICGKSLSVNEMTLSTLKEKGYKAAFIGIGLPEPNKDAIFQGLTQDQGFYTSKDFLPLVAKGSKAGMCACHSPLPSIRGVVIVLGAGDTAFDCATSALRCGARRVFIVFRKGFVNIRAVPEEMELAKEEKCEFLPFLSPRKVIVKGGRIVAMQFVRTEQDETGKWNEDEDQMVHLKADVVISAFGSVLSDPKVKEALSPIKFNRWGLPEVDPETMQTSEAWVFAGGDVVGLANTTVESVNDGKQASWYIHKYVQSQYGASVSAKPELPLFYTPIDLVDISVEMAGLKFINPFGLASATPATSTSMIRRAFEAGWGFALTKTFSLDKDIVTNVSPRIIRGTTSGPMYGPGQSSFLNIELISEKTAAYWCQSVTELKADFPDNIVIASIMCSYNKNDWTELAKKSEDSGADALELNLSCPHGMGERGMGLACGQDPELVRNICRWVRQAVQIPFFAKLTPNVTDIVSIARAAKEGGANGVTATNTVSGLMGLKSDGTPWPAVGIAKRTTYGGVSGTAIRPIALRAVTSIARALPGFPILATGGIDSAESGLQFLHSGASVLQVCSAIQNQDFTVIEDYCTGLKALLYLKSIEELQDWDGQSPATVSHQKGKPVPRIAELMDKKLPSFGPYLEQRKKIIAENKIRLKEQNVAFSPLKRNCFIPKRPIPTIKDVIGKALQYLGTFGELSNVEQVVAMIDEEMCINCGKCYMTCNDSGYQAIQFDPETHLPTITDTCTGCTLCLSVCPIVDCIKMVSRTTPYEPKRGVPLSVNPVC
The note with it: in vivo; cited from earlier work.

On to `Nc1ccn([C@@H]2O[C@H](CO)[C@@H](O)C2(F)F)c(=O)n1` [gemcitabine], for which the disease progression entry (Case Report #3) was “rapidly progressing metastasis”. Besides, for the setting “Case Report #3, T4NxM1”, the QOL result is “declining QOL”. `CCCCCOC(=O)Nc1nc(=O)n([C@@H]2O[C@H](C)[C@@H](O)[C@H]2O)cc1F` [capecitabine]: the side effects entry (human, in vivo) was “development of Xeloda-related side effects”. Also, the Median survival in series [1] is given as 182 days. Turning to `O=c1[nH]cc(F)c(=O)[nH]1` [5-FU, 5-Fluorouracil], on DPD, the “administered dose eliminated by catabolism through DPD” value is recorded as “More than 80%”.
